Results: patent publication US8921567B2, “Process for preparing N-substituted 1H-pyrazole-5-carbonylchloride compounds” (BASF SE, priority 2011, dated 2014)

Test: log P determination via capillary electrophorese on a cePro9600 from CombiSep
Assay type: physicochemical
Conditions: pH = 10.0
Protocol: log P determinations were performed via capillary electrophorese on a cePro9600™ from CombiSep.

logP | SMILES
logP: 2.2 [pH = 10.0]; | Cc1cccc(C(=O)N=S2CCSC2)c1NC(=O)c1cc(C(F)(F)F)nn1-c1ncccc1Cl (centres unmarked) [Example 208]
logP: 3.3 [pH = 10.0]; | Cc1cc(Cl)cc(C(=O)N=S(C(C)C)C(C)C)c1NC(=O)c1cc(C(F)(F)F)nn1-c1ncccc1Cl [compound 24]
